{"source": "patent US7344727B2", "about": "“Process for cleaning bovine teats” (H&S Chemical Company, Inc., priority 2002, dated 2008)", "key": {"[1]": {"tested_on": "bacteria on the udder and teat areas", "experiment": "sanitizing the udder and teat areas with a solution of TCM", "assay_type": "in vivo", "text": "This invention relates to the use of trichloromelamine as an active agent for sanitizing the udder and teat areas of cows. Like bleach TCM produces the Cl+ ion which is capable of killing a wide spectrum of bacteria. […] Solutions of sodium hypochlorite are generally not suitable for use on living tissue. […] The process of this invention is effected by spraying the udder and teat areas of a bovine with a solution of TCM. The process may be further effected by dipping the udder and teat areas in a solution of TCM. The process of this invention effectively kills all bacteria as may be on the udder and teat areas of a bovine in less than one minute."}, "[2]": {"conditions": "bovine, in vivo", "text": "This invention relates to the use of trichloromelamine as an active agent for sanitizing the udder and teat areas of cows. Like bleach TCM produces the Cl+ ion which is capable of killing a wide spectrum of bacteria. […] Solutions of sodium hypochlorite are generally not suitable for use on living tissue."}}, "data": [{"substance": "trichloromelamine [TCM]", "values": [{"measurement": "residual effect on the udder and teat areas", "setting": "[1]; residual TCM left after treatment", "value": "inhibits future bacterial contamination"}, {"measurement": "time to kill the troublesome bacteria", "setting": "[1]; soft living tissue treated in accordance with the invention", "value": "killed in a matter of seconds"}, {"measurement": "effect on treated living tissue", "setting": "[2]", "value": "not adversely affected"}]}]}
